Source: PMC12277872, “Design, Synthesis, In Vitro, and In Silico Studies of 5‐(Diethylamino)‐2‐Formylphenyl Naphthalene‐2‐Sulfonate Based Thiosemicarbazones as Potent Anti‐Alzheimer Agents” (Archiv Der Pharmazie, 2025)

Columns and labels:
[1] = molecular target: T1, hMAO‐B (Homo sapiens, UniProt P27338); assay: In vitro fluorometric MAO-B inhibition assay (tyramine substrate, horseradish peroxidase coupling); type: biochemical
T1 construct: purchased Sigma Aldrich M7441
T1 sequence (P27338 1-520): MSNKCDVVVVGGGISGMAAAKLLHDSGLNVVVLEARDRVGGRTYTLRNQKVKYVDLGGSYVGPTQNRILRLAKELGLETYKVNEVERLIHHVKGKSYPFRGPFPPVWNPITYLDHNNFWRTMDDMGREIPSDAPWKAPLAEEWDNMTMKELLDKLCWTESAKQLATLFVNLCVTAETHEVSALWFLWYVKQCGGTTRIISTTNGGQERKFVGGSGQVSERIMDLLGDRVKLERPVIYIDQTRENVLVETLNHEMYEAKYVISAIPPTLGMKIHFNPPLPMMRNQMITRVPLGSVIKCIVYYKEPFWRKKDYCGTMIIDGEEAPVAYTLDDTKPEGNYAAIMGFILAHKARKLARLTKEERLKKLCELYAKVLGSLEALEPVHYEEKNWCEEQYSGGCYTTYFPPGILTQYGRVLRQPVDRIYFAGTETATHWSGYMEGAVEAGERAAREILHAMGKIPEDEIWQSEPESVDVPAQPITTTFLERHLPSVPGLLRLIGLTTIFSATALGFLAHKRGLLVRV
Experimental: (§1) The in vitro fluorometric technique was used to assess each newly generated substance's inhibitory activity against hMAO‐A and hMAO‐B. In a horseradish peroxidase coupling reaction, the oxired reagent (10‐acetyl‐3,7‐dihydroxyphenoxazine) detects H2O2, a result of the oxidative deamination of tyramine, which is utilized as an MAO substrate. The test was carried out in two steps. First, each compound's concentrations of 10^–3 and 10^–4 M were investigated. […] These parameters of this study were made as in previous studies. We purchased these two enzymes from Sigma Aldrich (M7316‐Monoamine Oxidase A human and M7441‐ […]).

[2] = molecular target: T2, AChE from Electrophorus electricus (electric eel) (Electrophorus electricus, UniProt O42275); assay: biochemical; conditions: for IC50: AChI substrate, DTNB, 412 nm, Tris/HCl pH 8.0; for Ki: read-out: K i (nM) AChE
T2 construct: purchased Sigma Aldrich C3389
T2 sequence (O42275 24-633): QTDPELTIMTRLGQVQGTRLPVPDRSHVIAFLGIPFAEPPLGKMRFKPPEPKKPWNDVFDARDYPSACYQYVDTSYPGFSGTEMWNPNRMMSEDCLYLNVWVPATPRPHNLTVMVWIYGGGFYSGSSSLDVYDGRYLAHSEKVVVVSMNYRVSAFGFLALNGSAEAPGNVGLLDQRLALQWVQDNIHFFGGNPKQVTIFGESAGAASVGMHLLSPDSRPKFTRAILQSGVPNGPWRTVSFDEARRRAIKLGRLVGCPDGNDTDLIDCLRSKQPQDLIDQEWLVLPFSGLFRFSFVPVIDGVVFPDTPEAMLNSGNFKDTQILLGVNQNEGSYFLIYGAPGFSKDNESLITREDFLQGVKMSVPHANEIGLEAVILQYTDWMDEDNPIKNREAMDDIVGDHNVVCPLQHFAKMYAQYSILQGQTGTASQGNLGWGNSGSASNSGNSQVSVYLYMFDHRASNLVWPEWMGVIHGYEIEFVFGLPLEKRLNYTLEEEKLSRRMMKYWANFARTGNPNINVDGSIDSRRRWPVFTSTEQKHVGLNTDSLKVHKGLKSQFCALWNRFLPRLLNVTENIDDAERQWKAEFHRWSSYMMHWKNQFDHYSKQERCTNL
Experimental: Both […] (AChI) and butyrylcholine iodide (BChI) were used as substrates for the enzymatic hydrolysis reactions, with 5,5′‐dithiobis(2‐nitrobenzoic acid) (DTNB) serving as a common reagent for detecting the activities of AChE and BChE. The assay was conducted: 1 mL of 1.0 M Tris/HCl buffer (pH 8.0) was mixed with 10 μL of the sample solution in deionized water. To this mixture, 50 μL of AChE or BChE enzyme solution was added, and the reaction was incubated at room temperature for 10 min. After incubation, 50 μL of DTNB (0.5 mM) was introduced, followed by the addition of 50 μL of either AChI or BChI (10 mM), initiating the enzymatic reaction. […] This color change is due to the reaction of DTNB with thiocholine released during the hydrolysis of AChI or BChI. For every inhibitor that was utilized, IC50 and K i values were determined. In this study, C7512‐ BChE from equine serum and C3389‐ AChE from Electrophorus electricus (electric eel) were purchased from Sigma Aldrich.

[3] = molecular target: T3, BChE from equine serum (Equus caballus, UniProt P81908); assay: biochemical; conditions: for IC50: BChI substrate, DTNB, 412 nm, Tris/HCl pH 8.0; for Ki: read-out: K i (nM) BChE
T3 construct: C7512‐ BChE from equine serum; purchased Sigma Aldrich C7512; host or cells: equine serum
T3 sequence (P81908 whole entry): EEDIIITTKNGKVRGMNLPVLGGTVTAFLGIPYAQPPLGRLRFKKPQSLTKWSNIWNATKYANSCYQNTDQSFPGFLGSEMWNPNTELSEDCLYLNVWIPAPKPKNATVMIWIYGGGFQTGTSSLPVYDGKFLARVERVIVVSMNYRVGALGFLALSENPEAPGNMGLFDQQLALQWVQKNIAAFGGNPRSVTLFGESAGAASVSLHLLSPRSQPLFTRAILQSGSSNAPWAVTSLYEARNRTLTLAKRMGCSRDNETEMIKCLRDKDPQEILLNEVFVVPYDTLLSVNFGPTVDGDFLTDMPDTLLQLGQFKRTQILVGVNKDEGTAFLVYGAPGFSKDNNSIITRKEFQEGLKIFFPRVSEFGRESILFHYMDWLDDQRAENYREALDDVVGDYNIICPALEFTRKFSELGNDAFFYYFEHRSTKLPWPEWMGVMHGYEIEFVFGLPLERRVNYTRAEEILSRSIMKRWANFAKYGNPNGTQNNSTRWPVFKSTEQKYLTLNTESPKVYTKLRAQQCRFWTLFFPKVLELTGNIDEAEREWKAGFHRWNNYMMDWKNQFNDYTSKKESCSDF
Experimental: Both […] (AChI) and butyrylcholine iodide (BChI) were used as substrates for the enzymatic hydrolysis reactions, with 5,5′‐dithiobis(2‐nitrobenzoic acid) (DTNB) serving as a common reagent for detecting the activities of AChE and BChE. The assay was conducted: 1 mL of 1.0 M Tris/HCl buffer (pH 8.0) was mixed with 10 μL of the sample solution in deionized water. To this mixture, 50 μL of AChE or BChE enzyme solution was added, and the reaction was incubated at room temperature for 10 min. After incubation, 50 μL of DTNB (0.5 mM) was introduced, followed by the addition of 50 μL of either AChI or BChI (10 mM), initiating the enzymatic reaction. The hydrolysis of the substrates was monitored spectrophotometrically by measuring the absorbance at 412 nm, corresponding to the formation of the yellow‐colored 5‐thio‐2‐nitrobenzoate anion. This color change is due to the reaction of DTNB with thiocholine released during the hydrolysis of AChI or BChI. For every inhibitor that was utilized, IC50 and K i values were determined. In this study, C7512‐ BChE from equine serum and C3389‐ AChE from Electrophorus electricus (electric eel) were purchased from Sigma Aldrich.

[4] = molecular target: T4, hMAO‐A (Homo sapiens, UniProt P21397); assay: In vitro fluorometric MAO-A inhibition assay (tyramine substrate, horseradish peroxidase coupling); type: biochemical
T4 construct: purchased Sigma Aldrich M7316
T4 sequence (P21397 1-527): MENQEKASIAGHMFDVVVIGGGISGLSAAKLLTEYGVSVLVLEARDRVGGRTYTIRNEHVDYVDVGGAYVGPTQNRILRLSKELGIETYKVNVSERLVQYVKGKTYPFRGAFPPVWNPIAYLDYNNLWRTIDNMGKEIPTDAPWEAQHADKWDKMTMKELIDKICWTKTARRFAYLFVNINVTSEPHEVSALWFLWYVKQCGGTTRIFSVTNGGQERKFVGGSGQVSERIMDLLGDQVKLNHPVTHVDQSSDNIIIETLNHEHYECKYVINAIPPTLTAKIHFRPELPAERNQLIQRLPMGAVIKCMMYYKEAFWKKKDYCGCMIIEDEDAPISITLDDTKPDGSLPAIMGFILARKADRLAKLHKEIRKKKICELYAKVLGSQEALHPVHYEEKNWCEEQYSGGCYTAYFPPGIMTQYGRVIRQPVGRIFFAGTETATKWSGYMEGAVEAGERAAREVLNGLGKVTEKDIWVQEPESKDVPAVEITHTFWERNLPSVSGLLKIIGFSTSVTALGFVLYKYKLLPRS
Experimental: as §1

CCN(CC)c1ccc(/C=N/NC(=S)Nc2c(Cl)cccc2Cl)c(OS(=O)(=O)c2ccc3ccccc3c2)c1 [Compound 5u, (E)‐2‐({2‐[(2,6‐Dichlorophenyl)carbamothioyl]hydrazono}methyl)‐5‐(diethylamino)phenyl naphthalene‐2‐sulfonate]
IC50 [1]: 209 ± 5.84 nM | IC50 [2]: 12.9 ± 1.02 nM | Ki [2]: 9.82 ± 1.76 nM | IC50 [3]: 148 ± 7.35 nM | Ki [3]: 112 ± 7.61 nM | IC50 [4]: 96.2 ± 5.77 nM

CCN(CC)c1ccc(/C=N/NC(N)=S)c(OS(=O)(=O)c2ccc3ccccc3c2)c1 [Compound 5n, (E)‐2‐[(2‐Carbamothioylhydrazono)methyl]‐5‐(diethylamino)phenyl naphthalene‐2‐sulfonate]
IC50 [1]: 396 ± 8.09 nM | IC50 [2]: 47.7 ± 5.67 nM | Ki [2]: 42.4 ± 4.1 nM | IC50 [3]: 308 ± 9.98 nM | Ki [3]: 270 ± 13.5 nM | IC50 [4]: 137 ± 6.55 nM

CCN(CC)c1ccc(/C=N/NC(=S)Nc2ccccc2)c(OS(=O)(=O)c2ccc3ccccc3c2)c1 [Compound 5c, (E)‐5‐(Diethylamino)‐2‐{[2‐(phenylcarbamothioyl)hydrazono]methyl}phenyl naphthalene‐2‐sulfonate]
IC50 [1]: 296 ± 6.01 nM | IC50 [2]: 38.4 ± 5.03 nM | Ki [2]: 25.4 ± 5.32 nM | IC50 [3]: 218 ± 8.41 nM | Ki [3]: 183 ± 15 nM | IC50 [4]: 189 ± 6.46 nM

CCN(CC)c1ccc(/C=N/NC(=S)Nc2ccccc2C)c(OS(=O)(=O)c2ccc3ccccc3c2)c1 [Compound 5r, (E)‐5‐(Diethylamino)‐2‐{[2‐(o‐tolylcarbamothioyl)hydrazono]methyl}phenyl naphthalene‐2‐sulfonate]
IC50 [1]: 495 ± 8.36 nM | IC50 [2]: 27.4 ± 2.42 nM | Ki [2]: 21.2 ± 1.05 nM | IC50 [3]: 294 ± 7.14 nM | Ki [3]: 249 ± 15.3 nM | IC50 [4]: 143 ± 6.78 nM

CCN(CC)c1ccc(/C=N/NC(=S)NCc2ccc(Cl)cc2)c(OS(=O)(=O)c2ccc3ccccc3c2)c1 [Compound 5q, (E)‐2‐({2‐[(4‐Chlorobenzyl)carbamothioyl]hydrazono}methyl)‐5‐(diethylamino)phenyl naphthalene‐2‐sulfonate]
IC50 [1]: 308 ± 6.07 nM | IC50 [2]: 19.3 ± 1.28 nM | Ki [2]: 17.6 ± 3.34 nM | IC50 [3]: 202 ± 14.9 nM | Ki [3]: 183 ± 11.5 nM | IC50 [4]: 119 ± 9.24 nM

CCN(CC)c1ccc(C=NNC(=S)NCCCSC)c(OS(=O)(=O)c2ccc3ccccc3c2)c1 [Compound 5g]
IC50 [1]: 399 ± 7.93 nM | IC50 [2]: 80.4 ± 7.62 nM | Ki [2]: 72.4 ± 10.1 nM | IC50 [3]: 287 ± 8.57 nM | Ki [3]: 258 ± 16.1 nM | IC50 [4]: 188 ± 5.36 nM

CCN(CC)c1ccc(/C=N/NC(=S)Nc2cccc(OC)c2)c(OS(=O)(=O)c2ccc3ccccc3c2)c1 [Compound 5k, (E)‐5‐(Diethylamino)‐2‐({2‐[(3‐methoxyphenyl)carbamothioyl]hydrazono}methyl)phenyl naphthalene‐2‐sulfonate]
IC50 [1]: > 1000 nM | IC50 [2]: 116 ± 8.42 nM | Ki [2]: 95.8 ± 9.54 nM | IC50 [3]: 253 ± 9.15 nM | Ki [3]: 205 ± 10.2 nM | IC50 [4]: 145 ± 8.03 nM

CCN(CC)c1ccc(/C=N/NC(=S)NCC(C)C)c(OS(=O)(=O)c2ccc3ccccc3c2)c1 [Compound 5f, (E)‐5‐(Diethylamino)‐2‐{[2‐(isobutylcarbamothioyl)hydrazono]methyl}phenyl naphthalene‐2‐sulfonate]
IC50 [1]: 388 ± 5.37 nM | IC50 [2]: 49.5 ± 5.21 nM | Ki [2]: 38.8 ± 6.18 nM | IC50 [3]: 254 ± 6.31 nM | Ki [3]: 240 ± 18.6 nM | IC50 [4]: 134 ± 8.04 nM

CCN(CC)c1ccc(/C=N/NC(=S)Nc2c(C)cccc2C)c(OS(=O)(=O)c2ccc3ccccc3c2)c1 [Compound 5j, (E)‐5‐(Diethylamino)‐2‐({2‐[(2,6‐dimethylphenyl)carbamothioyl]hydrazono}methyl)phenyl naphthalene‐2‐sulfonate]
IC50 [1]: 395 ± 8.35 nM | IC50 [2]: 40.6 ± 2.77 nM | Ki [2]: 36.5 ± 5.23 nM | IC50 [3]: 265 ± 7.9 nM | Ki [3]: 228 ± 12.4 nM | IC50 [4]: 137 ± 6.21 nM

CCN(CC)c1ccc(/C=N/NC(=S)Nc2ccc(OC)cc2)c(OS(=O)(=O)c2ccc3ccccc3c2)c1 [Compound 5d, (E)‐5‐(Diethylamino)‐2‐({2‐[(4‐methoxyphenyl)carbamothioyl]hydrazono}methyl)phenyl naphthalene‐2‐sulfonate]
IC50 [1]: 406 ± 8.24 nM | IC50 [2]: 39.4 ± 2.87 nM | Ki [2]: 32.2 ± 5.93 nM | IC50 [3]: 253 ± 10.5 nM | Ki [3]: 235 ± 15 nM | IC50 [4]: 171 ± 10.4 nM

CCN(CC)c1ccc(/C=N/NC(=S)Nc2cccc([N+](=O)[O-])c2)c(OS(=O)(=O)c2ccc3ccccc3c2)c1 [Compound 5o, (E)‐5‐(Diethylamino)‐2‐({2‐[(3‐nitrophenyl)carbamothioyl]hydrazono}methyl)phenyl naphthalene‐2‐sulfonate]
IC50 [1]: 267 ± 6.35 nM | IC50 [2]: 18.9 ± 1.33 nM | Ki [2]: 14.2 ± 2.32 nM | IC50 [3]: 192 ± 6.36 nM | Ki [3]: 160 ± 9.01 nM | IC50 [4]: 123 ± 7.01 nM

CCN(CC)c1ccc(/C=N/NC(=S)Nc2cccc(Cl)c2Cl)c(OS(=O)(=O)c2ccc3ccccc3c2)c1 [Compound 5a, (E)‐2‐({2‐[(2,3‐Dichlorophenyl)carbamothioyl]hydrazono}methyl)‐5‐(diethylamino)phenyl naphthalene‐2‐sulfonate]
IC50 [1]: 391 ± 9.04 nM | IC50 [2]: 14.9 ± 1.54 nM | Ki [2]: 11.4 ± 3.06 nM | IC50 [3]: 125 ± 9.13 nM | Ki [3]: 101 ± 22.4 nM | IC50 [4]: 104 ± 4.58 nM

CCN(CC)c1ccc(/C=N/NC(=S)NCc2ccccc2)c(OS(=O)(=O)c2ccc3ccccc3c2)c1 [Compound 5s, (E)‐2‐{[2‐(Benzylcarbamothioyl)hydrazono]methyl}‐5‐(diethylamino)phenyl naphthalene‐2‐sulfonate]
IC50 [1]: 369 ± 12 nM | IC50 [2]: 71.4 ± 8.92 nM | Ki [2]: 63.9 ± 7.54 nM | IC50 [3]: 220 ± 8.53 nM | Ki [3]: 195 ± 13.5 nM | IC50 [4]: 131 ± 5.34 nM

CCN(CC)c1ccc(/C=N/NC(=S)Nc2ccc(Cl)cc2)c(OS(=O)(=O)c2ccc3ccccc3c2)c1 [Compound 5i, (E)‐2‐({2‐[(4‐Chlorophenyl)carbamothioyl]hydrazono}methyl)‐5‐(diethylamino)phenyl naphthalene‐2‐sulfonate]
IC50 [1]: 285 ± 4.02 nM | IC50 [2]: 24.8 ± 2.41 nM | Ki [2]: 21 ± 4.12 nM | IC50 [3]: 200 ± 9.41 nM | Ki [3]: 190 ± 13.6 nM | IC50 [4]: 121 ± 3.15 nM

CCN(CC)c1ccc(/C=N/NC(=S)NC2CCCCC2)c(OS(=O)(=O)c2ccc3ccccc3c2)c1 [Compound 5p, (E)‐2‐{[2‐(Cyclohexylcarbamothioyl)hydrazono]methyl}‐5‐(diethylamino)phenyl naphthalene‐2‐sulfonate]
IC50 [1]: 327 ± 9.13 nM | IC50 [2]: 54.5 ± 4.57 nM | Ki [2]: 47.1 ± 6.35 nM | IC50 [3]: 254 ± 8.08 nM | Ki [3]: 226 ± 12.6 nM | IC50 [4]: 145 ± 3.57 nM
